Reference: PMC13184981, “Discovery and Development of a Potent LIMK2 Isoform-Specific Degrader” (ACS Chemical Biology, 2026)

Tests used:
Type in all cases: cell-based
[1] = target: T1, NanoLuc-tagged LIMK2 and Halo-tagged CRBN (Homo sapiens, UniProt P53671+Q96SW2); experiment: NanoBRET cellular ternary complex formation, LIMK2
T1 construct: CRBN vector in-house NV1531; host or cells: HEK293T
Excerpt: Next, we assessed ternary complex formation for the parent and lead PROTACs in live cells using the NanoBRET proximity assay. A ternary complex assay system was established using NanoLuc-tagged LIMKs and Halo-tagged CRBN. Formation of the ternary complex upon PROTAC addition was quantified by measuring the BRET signal. […] However, they differed in the strength of the ternary complex. […] We also confirmed the differences in ternary complex strength using the orthogonal PROXICapture approach, in which MOLT-4 cell lysate was passed over immobilized FLAG-tagged CRBN preincubated with THNAN69.
Gene encoding LIMK1 (Promega, NV3391) and LIMK2 (Promega, NV1531) proteins cloned in frame with NanoLuc fusion tag at the C-Terminus and gene encoding cereblon (generated in-house) cloned in frame with Halo Tag at the N-Terminus, were used to measure the end-point ternary complex formation between the PROTACs and LIMK1 and LIMK2, respectively. […] To measure BRET, NanoBRET NanoGlo Substrate + Extracellular NanoLuc Inhibitor (Promega, N2162) was added to cells as per the manufacturer’s protocol, and filtered luminescence was measured on a PHERAstar FSX plate reader (BMG Labtech) equipped with a luminescence filter pair (450 nm BP filter (donor) and 610 nm LP filter (acceptor)). […]

LIMK2 [2] = target: T2, LIMK2 (Homo sapiens, UniProt P53671); experiment: Western blot of endogenous LIMK2 in HuCCT1 cells
Protocol: HuCCT1 cell line was cultured in Roswell Park Memorial Institute (RPMI) 1640 medium supplemented with GlutaMAX, 10% fetal bovine serum (FBS), and 1% penicillin/streptomycin. The cell line was maintained in an incubator with 5% CO2 at 37 °C. For the treatment, 3 × 10^5 cells were plated and treated with the compounds and DMSO as the control for 6 h. The cells were then lysed using RIPA buffer (50 mM Tris-HCl pH 7.4, 150 mM NaCl, 1% Triton X-100, 1% NaDOC, 0.1% SDS, 1 mM EDTA), freshly supplemented with protease and phosphatase inhibitor cocktails (Sigma-Aldrich, Darmstadt, Germany). After 1 h incubation on ice, the lysates were centrifuged for 30 min at […], and the protein-containing supernatant was collected. The protein concentrations were determined using Protein Assay Dye Reagent Concentrate (Bradford, Bio-Rad, Hercules, CA, USA) and Pre-Diluted Protein Assay Standards: Bovine Serum Albumin (BSA) Set (Thermo Fisher Scientific, Darmstadt, Germany). Then, equal amounts of protein was mixed with Roti-Load 1 dye (Carl Roth, Karlsruhe, Germany) and 4x Laemmli Buffer (Bio-Rad, Hercules, CA, USA), denatured at 95 °C, and run on NuPAGE 4–12% bis-Tris gels (Thermo Fisher Scientific). Proteins were blotted on methanol-activated PVDF Transfer Membranes (Thermo Fisher Scientific) using the wet transfer method with the transfer buffer (Thermo Fisher Scientific) and 20% methanol. Afterward, the membranes were blocked with 5% milk or 3% BSA in 0.1% TBS-T for 1 h at RT and incubated overnight at 4 °C with primary antibodies: GAPDH (catalog no. 2118, Cell Signaling Technology, MA, USA, 1:1000 dilution), LIMK1 (catalog no. 3842, Cell Signaling Technology, 1:1000 dilution), LIMK2 (catalog no. 3845, 1:500 dilution), phospho-Cofilin (catalog no. 3313, Cell Signaling Technology, 1:1000 dilution), Cofilin (catalog no. 5175, Cell Signaling Technology, 1:1000 dilution). Then, the membranes were washed with 0.1% TBS-T and incubated with secondary horseradish-peroxidase (HRP)-conjugated antibody for 2 h (catalog no. 7074, Cell Signaling Technology, 1:3000 dilution). The membranes were washed again with 0.1% TBS-T before they were developed using X-ray films (Fujifilm, Dusseldorf, Germany).

EGFP–LIMK2 = target: T3, EGFP–LIMK2 (Homo sapiens, UniProt P53671); experiment: EGFP-LIMK2 depletion live-cell assay (Incucyte)
T3 construct: P2A remnant (from EGFP-LIMK2-P2A-mCherry; that residues stay on LIMK2 after self-cleavage is own knowledge) (C); expressed in transfected cells; host or cells: HuCCT1 (lentiviral transduction, doxycycline-inducible pCW57 vector)

LIMK2 [3] = target: T2, LIMK2; experiment: NanoBRET cellular target engagement, LIMK2; design: host or cells: HEK293T
Protocol: Gene encoding LIMK1 (Promega, NV3391) and LIMK2 (Promega, NV1531), CRBN (Promega, N2741) proteins cloned in frame with NanoLuc fusion tag at the C-terminus, were transfected into HEK293T cells using FuGENE HD (Promega, E2312) following manufacture’s protocol and proteins were allowed to express for 20 h at 37 °C and 5% CO2. […] The 10 μL of transfected cells after trypsinization and resuspending in Opti-MEM (Life Technologies, 31985070) were dispensed into each well of the 384-well plate (Greiner 781207) at a cell density of 2 × 10^5 cells/mL. For dose–response BRET measurements, compounds at various concentrations, immediately followed by Tracer K10 (Promega, Tracer DB ID: T000008) for LIMK1 and LIMK2, CRBN Tracer (Promega, Tracer DB ID: T000018) for CRBN at an optimum KD concentration chosen from TracerDB (tracerdb.org), were pipetted using an Echo acoustic dispenser (Labcyte). The system was allowed to equilibrate for 2 h at 37 °C and 5% CO2 before BRET measurements. To measure BRET signal, the NanoBRET NanoGlo Substrate (Promega, N1573) was added as per the manufacturer’s protocol, and filtered luminescence was measured on a PHERAstar plate reader (BMG Labtech) equipped with a luminescence filter pair (450 nm BP filter (donor) and 610 nm LP filter (acceptor)). For lysed NanoBRET measurement, 25 nL of Digitonin (0.05 μg/μL) was pipetted to each well using Labcyte, and the plate was incubated for 5 min at 37 °C and 5% CO2. After incubation, the BRET signals were measured by a PHERAstar plate reader following the same procedure as intact NanoBRET measurement. […] The BRET ratios are normalized to both of them in the prism output data file. Competitive displacement data were then normalized to controls and were graphed using GraphPad Prism 9 software employing a normalized 3-parameter curve fit with the following equation: Y = 100/(1 + 10̂(X – logIC50)).

T2 sequence (P53671 whole entry): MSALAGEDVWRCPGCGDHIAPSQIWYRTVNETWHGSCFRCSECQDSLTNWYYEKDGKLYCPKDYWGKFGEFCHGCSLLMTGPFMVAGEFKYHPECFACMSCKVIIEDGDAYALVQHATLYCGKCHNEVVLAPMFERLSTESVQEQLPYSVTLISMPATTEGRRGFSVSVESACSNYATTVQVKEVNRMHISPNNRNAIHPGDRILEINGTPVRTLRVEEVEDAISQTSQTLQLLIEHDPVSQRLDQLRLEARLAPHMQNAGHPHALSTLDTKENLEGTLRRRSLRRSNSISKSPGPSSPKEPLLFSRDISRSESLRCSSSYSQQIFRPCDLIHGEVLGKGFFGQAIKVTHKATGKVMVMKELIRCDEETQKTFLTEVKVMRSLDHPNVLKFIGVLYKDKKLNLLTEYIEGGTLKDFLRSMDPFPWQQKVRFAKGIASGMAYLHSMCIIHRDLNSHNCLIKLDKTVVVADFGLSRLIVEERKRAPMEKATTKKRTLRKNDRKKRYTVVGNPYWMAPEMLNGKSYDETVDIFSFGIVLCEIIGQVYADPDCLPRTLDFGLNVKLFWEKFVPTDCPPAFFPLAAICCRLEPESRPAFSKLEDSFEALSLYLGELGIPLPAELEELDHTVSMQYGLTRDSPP
T3 sequence (P53671 whole entry): as above
T1 sequence (P53671 whole entry): as above
T1 sequence (Q96SW2 whole entry): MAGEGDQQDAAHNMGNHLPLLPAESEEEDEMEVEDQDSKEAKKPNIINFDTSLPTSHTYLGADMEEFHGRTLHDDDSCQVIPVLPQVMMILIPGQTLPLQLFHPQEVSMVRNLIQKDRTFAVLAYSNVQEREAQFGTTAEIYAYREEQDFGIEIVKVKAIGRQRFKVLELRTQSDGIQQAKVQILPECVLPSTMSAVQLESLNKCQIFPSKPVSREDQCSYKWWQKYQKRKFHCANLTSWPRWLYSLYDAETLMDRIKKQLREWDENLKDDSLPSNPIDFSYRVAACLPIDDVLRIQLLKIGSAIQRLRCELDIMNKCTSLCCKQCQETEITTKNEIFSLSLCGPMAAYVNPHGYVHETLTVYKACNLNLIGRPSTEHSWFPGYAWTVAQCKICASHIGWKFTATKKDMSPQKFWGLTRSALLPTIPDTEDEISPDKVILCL
T1 sequence (Q16531 whole entry partner): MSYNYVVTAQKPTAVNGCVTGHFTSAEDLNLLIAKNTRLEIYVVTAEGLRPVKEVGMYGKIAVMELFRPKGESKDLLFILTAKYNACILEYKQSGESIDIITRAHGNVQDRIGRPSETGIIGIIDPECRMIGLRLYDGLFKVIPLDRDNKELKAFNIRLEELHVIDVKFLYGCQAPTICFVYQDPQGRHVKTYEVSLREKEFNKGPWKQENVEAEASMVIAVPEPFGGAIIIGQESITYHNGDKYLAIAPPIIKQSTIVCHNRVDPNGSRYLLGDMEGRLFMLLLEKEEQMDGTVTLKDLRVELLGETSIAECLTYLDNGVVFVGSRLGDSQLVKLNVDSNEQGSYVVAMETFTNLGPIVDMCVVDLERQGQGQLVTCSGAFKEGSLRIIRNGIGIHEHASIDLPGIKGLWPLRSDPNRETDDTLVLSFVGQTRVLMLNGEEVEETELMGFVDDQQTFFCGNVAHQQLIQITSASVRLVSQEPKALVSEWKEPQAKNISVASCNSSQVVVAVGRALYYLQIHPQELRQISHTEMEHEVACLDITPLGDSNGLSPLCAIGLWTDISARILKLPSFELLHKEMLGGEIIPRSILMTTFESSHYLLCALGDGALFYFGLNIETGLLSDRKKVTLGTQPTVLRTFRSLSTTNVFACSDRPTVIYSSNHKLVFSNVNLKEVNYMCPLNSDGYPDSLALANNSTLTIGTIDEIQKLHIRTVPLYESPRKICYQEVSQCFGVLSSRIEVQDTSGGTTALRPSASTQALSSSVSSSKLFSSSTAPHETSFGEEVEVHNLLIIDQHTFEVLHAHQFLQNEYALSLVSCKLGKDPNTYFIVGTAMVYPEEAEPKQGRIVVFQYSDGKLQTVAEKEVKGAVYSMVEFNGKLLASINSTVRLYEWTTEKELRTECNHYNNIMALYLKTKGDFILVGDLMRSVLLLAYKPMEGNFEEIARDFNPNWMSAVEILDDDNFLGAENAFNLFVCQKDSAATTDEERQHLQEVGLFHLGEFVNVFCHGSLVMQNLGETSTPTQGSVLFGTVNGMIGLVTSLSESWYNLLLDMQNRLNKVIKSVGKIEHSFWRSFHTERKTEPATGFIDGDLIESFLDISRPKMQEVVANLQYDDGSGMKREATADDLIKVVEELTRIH

Compound: Cc1c(OCc2cn(CCCCC(=O)Nc3ncc(-c4cc(C(F)F)nn4-c4c(Cl)cccc4Cl)s3)nn2)cccc1N1CCC(=O)NC1=O [22b]
- EC50 [1]: 77 nM
- concentration giving near-complete depletion of endogenous LIMK2 (LIMK2 [2]; HuCCT1, 6 h, Western blot): 10 nM
- LIMK2 degradation (Western blot) (LIMK2 [2]; HuCCT1, 6 h treatment): strong LIMK2-selective degradation
- Dmax (EGFP–LIMK2; 0.01 nM PROTAC): 4.5%
- Dmax (EGFP–LIMK2; 10000 nM PROTAC): 96.1%
- IC50 (LIMK2 [3]): 80 nM
- LIMK2 binary IC50 stronger than LIMK1 (LIMK2 [3]; NanoBRET, LIMK2 vs LIMK1): 5 fold
